Measured values taken from patent US5608069A, “1-substituted, 3-carboxylic acid piperidine derivatives” (Novo Nordisk A/S, priority 1993, dated 1997).
Counter-ions that a name gives are not always drawn.

tested on: GABA uptake; assay: not given; details: Yunger, L. M. et al., 1984; Krogsgaard-Larsen, P. et al., 1987; oral; cited from earlier work

| Compound | orally active inhibition of GABA uptake (in words) |
| --- | --- |
| O=C(O)CC1CCN(CCC=C(c2ccccc2)c2ccccc2)C1 (stereo not drawn) [SK&F 100561, N-(4,4-diphenyl-3-buten-1-yl)-homo-β-proline] | orally active inhibitors of GABA uptake |
| O=C(O)C1CCCN(CCC=C(c2ccccc2)c2cccs2)C1 (stereo not drawn) [SK&F 100604J, N-(4-phenyl-4-(2-thienyl)-3-buten-1-yl)nipecotic acid] | orally active inhibitors of GABA uptake |
| O=C(O)C1=CCCN(CCC=C(c2ccccc2)c2ccccc2)C1 [SK&F 100330A, N-(4,4-diphenyl-3-buten-1-yl)guvacine] | orally active inhibitors of GABA uptake |
| O=C(O)C1CCCN(CCC=C(c2ccccc2)c2ccccc2)C1 (stereo not drawn) [SK&F 89976A, N-(4,4-diphenyl-3-buten-1-yl)nipecotic acid] | orally active inhibitors of GABA uptake |

same assay, conditions: from the synaptic cleft into presynaptic nerve terminals and glial cells; cited from earlier work

| Compound | inhibition of GABA uptake (in words) |
| --- | --- |
| O=C(O)C1CCCNC1 (stereo not drawn) [nipecotic acid, 3-piperidinecarboxylic acid] | well-known and potent inhibitor of GABA uptake |

tested on: [^3 H]-GABA uptake; assay: in vitro inhibition of [^3 H]-GABA uptake (rat cortical tissue homogenate); type: biochemical, Male wistar rat; details: tris HCl buffer pH 7.5, 60 minutes at 30° C.
Experimental: Values for in vitro inhibition of [^3 H]-GABA uptake for the invention compounds were assessed essentially by the method of Fjalland (Acta Pharmacol. Toxicol. 1978, 42, 73-76). Male wistar rat cortical tissue was gently homogenized by hand using a glass/PTFE homogenizer in 10 volumes of 0.32M sucrose. Incubation was performed in a 40 mM tris HCl buffer (pH 7.5 at 30° C.) containing […], 4 mM MgSO4, […] and 10 mM glucose, for 60 minutes at 30° C. Values for inhibition of GABA uptake for some representative compounds are recorded in Table I.

| Compound | IC50 [nM] |
| --- | --- |
| COC/C(=N\OCCN1CCC[C@@H](C(=O)O)C1)c1ccccc1 [Example 5, Z-(R)-1-(2-(((2-Methoxy-1-phenyl-1-ethylidene)amino)oxy)ethyl)-3-piperidinecarboxylic acid hydrochloride] | 2000 |
| Cc1ccccc1/C=N/OCCN1CCC[C@@H](C(=O)O)C1 [Example 1, E-(R )-1-(2-((((2-Methylphenyl)methylene)amino)oxy)ethyl)-3-piperidinecarboxylic acid hydrochloride] | > 9000 |
| O=C(O)[C@@H]1CCCN(CCO/N=C(/c2ccccc2)C(F)(F)F)C1 [Example 6, Z-(R)-1-(2-(((1-Phenyl-2,2,2-trifluoro-1-ethylidene)amino)oxy)ethyl)-3-piperidinecarboxylic acid hydrochloride] | 4500 |
| CCCCCCC/C(=N\OCCN1CCC[C@@H](C(=O)O)C1)c1ccccc1 [Example 4, E-(R)-1-(2-(((1-Phenyl-1-octanylidene)amino)oxy)ethyl)-3-piperidinecarboxylic acid hydrochloride] | 1100 |
| CC(C)C=C(C=NOCCN1CCC[C@@H](C(=O)O)C1)c1ccccc1 [Example 2] | 236 |
| CCCCCCC/C(=N/OCCN1CCC[C@@H](C(=O)O)C1)c1ccccc1 [Example 3, Z-(R)-1-(2-(((1-Phenyl-1-octanylidene)amino)oxy)ethyl)-3-piperidinecarboxylic acid hydrochloride] | 2200 |

tested on: not given; assay: not given; details: relatively polar compound; cited from earlier work

| Compound | ability to cross the blood-brain barrier (in words) |
| --- | --- |
| O=C(O)C1CCCNC1 (stereo not drawn) [nipecotic acid, 3-piperidinecarboxylic acid] | unable to cross the blood-brain barrier |
